Measured values from patent US8354498B2, “CD4 mimic peptides and their uses” (Commissariat a l'Energie Atomique, priority 2006, dated 2013).
Like-named read-outs stand apart in the source and are kept apart here.

Tests used:
Type in all cases: cell-based
HIV-1 Ba-L = test: Dendritic cells assay: MO-DC/CD4+ T cell co-cultures, replication competent virus; conditions: for EC50: Human immunodeficiency virus 1, BAL
Description: Dendritic cell experiments were preformed with the replication-competent CCR5 co-receptor, using non-syncytium inducing, subtype B HIV-1 strain Ba-L whose infectious titer was determined on cultures of PHA/IL-2 stimulated PBMC.
Monocytes were separated from the buffy-coats of HIV seronegative blood donors by counter-flow elutriation and E-rosetting. They were subsequently differentiated to monocyte-derived dendritic cells (MO-DC) using GM-CSF and IL-4. […] After 30 minutes, 100 μl of MO-DC were added (4×10^5 cells/ml) and incubated for 2 h (37° C., 5% CO2). Afterwards, cells were washed 3 times and autologous CD4+ T cells were added, in the presence of compound. Co-cultures were incubated for 24 h, after which the cells were washed again (3 times) to remove the compound. Cells were incubated during 14 days of primary culture, during which half of the culture medium was refreshed twice weekly, without compound. At day 14, cultures were washed and PHA/IL-2 activated PBMC were added (2×10^5 cells/cup) to detect any latent or subliminal infection during a supplementary 14 days of secondary culture. Culture supernatants of primary (day 7 and day 14) and secondary (day 28) cultures were analyzed for the presence of HIV p24 Ag by a monoclonal p24 antibody (HuMab-HIVp24; BIOMARIC NV) enzyme-linked immunosorbant assay (ELISA).
Importantly, the replication-competent HIV-1 Ba-L reference strain, was used for these experiments. The virus was shortly pre-incubated with a dilution range of one of the compounds before addition of the MO-DC target cells. The compound remained present during infection and during the first 24 h of the co-culture of the MO-DC with the autologous CD4^+ T cells, but was washed away afterwards.

HIV-1 pseudovirus CA10-3 = test: HIV single cycle pseudovirus assay in GHOST cells; conditions: read-out: antiviral activity EC50
Description: (§1) For single-cycle infection experiments, HIV pseudoviruses representative of different HIV-1 subtypes were produced by co-transfection of 2×10^5 HEK293 (American Type Culture Collection) derived cells expressing the SV40 T antigen (HEK293 T), using the calcium phosphate method (ProFection® mammalian transfection system; PROMEGA). To this end, 1 μg of an HIV-1 env expressing vector under control of a CMV promoter, derived from pcDNA4/TO backbone vector (INVITROGEN) and 400 ng of the HIV-1 genomic vector (pNL4-3.Luc R^−E^−; National Institutes of Health AIDS Research and Reference Reagent program; catalogue number 3418), under control of the LTR promoter were used. pNL4-3.Luc R^−E^− contains the whole HIV genome, including a packaging signal, but has a frameshift in the env and vpr genes rendering it non-infectious. Furthermore a luciferase reporter gene replaces the nef gene. After 24 h, the medium was replaced with medium containing 1 mM sodium butyrate (SIGMA-ALDRICH) and the cells were further incubated for an additional 24 h. Afterwards, the supernatant with the pseudovirus was harvested, filtered (Millex 0.45 μm filters, MILLIPORE) and after adding Fetal calf serum (FCS; 10%) stored at −80° C. Pseudoviruses of different HIV-1 subtypes were created, including pseudoviruses derived from the subtype B, CCR5 co-receptor using strains Ba-L and SF162; the subtype B, CXCR4 co-receptor using strains Mn; the subtype C, CCR5 co-receptor using strains VI829, VI1358 and MJ4 and the CRF01_AE, CXCR4 co-receptor using strain CA10-3.
(§2) Fifty microliters of HIV pseudovirus were pre-incubated with 50 μl of a dilution series of a CD4 miniprotein or reference compound. After 15 minutes, 100 μl of GHOST target cells (AIDS REFERENCE AND REAGENT PROGRAM; 1.2×10^5 cells/ml) expressing CD4 and either of the HIV co-receptors CCR5 or CXCR4 were added to the 96-well cups containing the pre-treated pseudovirus. The GHOST cells were lysed 48 h post-infection by addition of the luciferin substrate (SteadyLite HTS, PERKIN ELMER LIFE SCIENCES). The resulting light signal, expressed as relative lights units (RLU), was quantified in a luminometer (Top Count™, CANBERRA-PACKARD).

HIV-1 pseudovirus VI829 = test: HIV single cycle pseudovirus assay in GHOST cells; conditions: read-out: antiviral activity EC50
Description: as §1, §2

HIV-1 pseudovirus SF162 = test: HIV single cycle pseudovirus assay in GHOST cells; conditions: read-out: antiviral activity EC50
Description: as §1, §2

HIV-1 pseudovirus Mn = test: HIV single cycle pseudovirus assay in GHOST cells; conditions: read-out: antiviral activity EC50
Description: as §1, §2

HIV-1 pseudovirus VI1358 = test: HIV single cycle pseudovirus assay in GHOST cells; conditions: read-out: antiviral activity EC50
Description: as §1, §2

HIV-1 pseudovirus MJ4 = test: HIV single cycle pseudovirus assay in GHOST cells; conditions: read-out: antiviral activity EC50
Description: as §1, §2

HIV-1 pseudovirus Ba-L = test: HIV single cycle pseudovirus assay in GHOST cells; conditions: read-out: antiviral activity EC50
Description: as §1, §2

With Cc1cc(C)c(Nc2ccnc(Nc3ccc(C#N)cc3)n2)c(C)c1 [TMC120] the EC50 (HIV-1 Ba-L; 168 h, Day 7, read-out: EC50, primary culture, Day 7) was 3 nM, the EC50 (HIV-1 Ba-L; 336 h, Day 14, read-out: EC50, primary culture, Day 14) was 3 nM and the “Cmin, secondary culture, Day 28 (minimal concentration blocking infection)” value (HIV-1 Ba-L; confirmed at Day 28) was 100 nM. The EC50 (HIV-1 pseudovirus CA10-3) was 1.5 nM, the EC50 (HIV-1 pseudovirus VI829) was 1.2 nM and the EC50 (HIV-1 pseudovirus SF162) was 0.9 nM. For the same compound, the EC50 (HIV-1 pseudovirus Mn) was 1.8 nM, the EC50 (HIV-1 pseudovirus VI1358) was 0.6 nM and the EC50 (HIV-1 pseudovirus MJ4) was 1.5 nM. The EC50 (HIV-1 pseudovirus Ba-L) was 1.5 nM.
